Experimental findings from paper PMC6458995, “MAP4K4 Inhibition Promotes Survival of Human Stem Cell-Derived Cardiomyocytes and Reduces Infarct Size In Vivo” (Cell Stem Cell, 2019) are described below.

Assay in all cases: Dundee kinase panel
Type in all cases: biochemical
Holding throughout (conditions): for remaining activity at 1 µM: read-out: residual activity

In one experiment the target is T1, ASK1 (Homo sapiens, UniProt Q99683).
T1 construct: lines 1-140) and Reaction Biology
T1 sequence (Q99683 1-1374): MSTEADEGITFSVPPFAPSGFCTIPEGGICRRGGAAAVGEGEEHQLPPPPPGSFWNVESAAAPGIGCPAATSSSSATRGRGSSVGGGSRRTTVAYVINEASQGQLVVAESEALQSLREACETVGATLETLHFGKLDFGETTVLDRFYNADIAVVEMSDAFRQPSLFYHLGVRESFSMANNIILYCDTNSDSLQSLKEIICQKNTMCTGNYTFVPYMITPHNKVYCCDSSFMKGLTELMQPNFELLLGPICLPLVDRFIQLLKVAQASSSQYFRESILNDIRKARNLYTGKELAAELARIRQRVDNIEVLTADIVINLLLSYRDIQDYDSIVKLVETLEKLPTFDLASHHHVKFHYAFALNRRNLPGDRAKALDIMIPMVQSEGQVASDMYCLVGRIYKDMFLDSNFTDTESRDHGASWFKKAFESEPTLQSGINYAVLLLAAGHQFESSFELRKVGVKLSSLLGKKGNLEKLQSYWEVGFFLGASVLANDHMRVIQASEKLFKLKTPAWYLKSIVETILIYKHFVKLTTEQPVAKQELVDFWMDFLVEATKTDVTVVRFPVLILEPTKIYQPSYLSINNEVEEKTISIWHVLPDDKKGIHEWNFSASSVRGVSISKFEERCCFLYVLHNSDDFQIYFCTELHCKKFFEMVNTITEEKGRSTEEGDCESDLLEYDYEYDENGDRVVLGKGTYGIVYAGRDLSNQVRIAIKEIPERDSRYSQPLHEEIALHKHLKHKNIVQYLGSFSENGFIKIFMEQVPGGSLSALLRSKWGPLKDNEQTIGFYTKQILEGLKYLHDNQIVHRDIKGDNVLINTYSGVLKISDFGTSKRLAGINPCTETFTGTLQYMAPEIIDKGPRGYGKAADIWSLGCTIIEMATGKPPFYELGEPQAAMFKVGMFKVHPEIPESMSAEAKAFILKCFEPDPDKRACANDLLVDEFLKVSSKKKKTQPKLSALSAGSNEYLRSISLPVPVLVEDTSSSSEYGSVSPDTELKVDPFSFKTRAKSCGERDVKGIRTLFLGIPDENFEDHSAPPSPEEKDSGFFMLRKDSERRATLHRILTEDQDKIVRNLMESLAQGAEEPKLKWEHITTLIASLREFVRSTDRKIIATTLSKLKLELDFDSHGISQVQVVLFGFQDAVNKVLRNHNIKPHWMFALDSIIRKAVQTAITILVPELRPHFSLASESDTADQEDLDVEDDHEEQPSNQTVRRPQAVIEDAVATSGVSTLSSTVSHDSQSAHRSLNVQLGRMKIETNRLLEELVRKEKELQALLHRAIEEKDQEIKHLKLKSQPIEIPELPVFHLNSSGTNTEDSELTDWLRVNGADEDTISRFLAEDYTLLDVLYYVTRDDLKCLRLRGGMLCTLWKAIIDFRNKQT
As to the method:
(§1) Compounds were screened at 1 μM. For key hits, pIC50 values were then determined by HTRF as above. […] Stability in mouse and human liver microsomes was determined by Cyprotex.

The next experiment has as its target T2, CDK2-Cyclin A (Homo sapiens, UniProt P24941).
T2 construct: lines 1-140) and Reaction Biology
As to the method:
as §1

The target of the next experiment is T3, CHK2 (Homo sapiens, UniProt O96017).
T3 construct: lines 1-140) and Reaction Biology
T3 sequence (O96017 whole entry): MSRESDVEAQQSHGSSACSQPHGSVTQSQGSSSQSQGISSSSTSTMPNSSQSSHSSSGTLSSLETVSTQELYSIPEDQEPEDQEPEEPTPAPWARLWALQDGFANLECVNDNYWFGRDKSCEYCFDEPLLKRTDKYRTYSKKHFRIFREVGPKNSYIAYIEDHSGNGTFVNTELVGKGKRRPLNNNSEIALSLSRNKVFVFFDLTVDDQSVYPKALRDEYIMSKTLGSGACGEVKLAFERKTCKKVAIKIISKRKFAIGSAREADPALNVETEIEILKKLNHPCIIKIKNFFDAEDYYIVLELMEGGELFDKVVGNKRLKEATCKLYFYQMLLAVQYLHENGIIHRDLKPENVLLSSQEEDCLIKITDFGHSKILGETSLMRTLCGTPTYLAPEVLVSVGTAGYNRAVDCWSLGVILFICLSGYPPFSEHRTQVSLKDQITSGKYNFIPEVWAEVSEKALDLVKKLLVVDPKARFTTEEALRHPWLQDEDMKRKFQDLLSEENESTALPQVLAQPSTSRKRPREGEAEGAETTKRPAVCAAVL
As to the method: as §1

In another experiment the target is T4, CSK (Homo sapiens, UniProt P41240).
T4 construct: lines 1-140) and Reaction Biology
T4 sequence (P41240 whole entry): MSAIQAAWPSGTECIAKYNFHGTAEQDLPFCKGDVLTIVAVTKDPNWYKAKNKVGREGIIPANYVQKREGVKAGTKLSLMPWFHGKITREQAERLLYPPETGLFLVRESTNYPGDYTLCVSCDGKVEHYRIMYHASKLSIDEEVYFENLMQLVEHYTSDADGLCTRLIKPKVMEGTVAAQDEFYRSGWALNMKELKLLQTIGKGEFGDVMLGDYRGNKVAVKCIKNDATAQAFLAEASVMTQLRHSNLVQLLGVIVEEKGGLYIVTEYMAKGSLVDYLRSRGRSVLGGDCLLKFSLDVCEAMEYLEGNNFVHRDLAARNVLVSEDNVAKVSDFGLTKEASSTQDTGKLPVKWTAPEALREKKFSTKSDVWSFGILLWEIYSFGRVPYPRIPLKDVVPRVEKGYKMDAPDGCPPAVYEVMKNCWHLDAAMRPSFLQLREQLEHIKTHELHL
As to the method:
as §1

The target of a further experiment is T5, DAPK1 (Homo sapiens, UniProt P53355).
T5 construct: lines 1-140) and Reaction Biology
As for the experimental part: as §1

A further experiment deals with T6, EPH-B3 (Homo sapiens, UniProt P54753).
T6 construct: lines 1-140) and Reaction Biology
T6 sequence (P54753 34-998): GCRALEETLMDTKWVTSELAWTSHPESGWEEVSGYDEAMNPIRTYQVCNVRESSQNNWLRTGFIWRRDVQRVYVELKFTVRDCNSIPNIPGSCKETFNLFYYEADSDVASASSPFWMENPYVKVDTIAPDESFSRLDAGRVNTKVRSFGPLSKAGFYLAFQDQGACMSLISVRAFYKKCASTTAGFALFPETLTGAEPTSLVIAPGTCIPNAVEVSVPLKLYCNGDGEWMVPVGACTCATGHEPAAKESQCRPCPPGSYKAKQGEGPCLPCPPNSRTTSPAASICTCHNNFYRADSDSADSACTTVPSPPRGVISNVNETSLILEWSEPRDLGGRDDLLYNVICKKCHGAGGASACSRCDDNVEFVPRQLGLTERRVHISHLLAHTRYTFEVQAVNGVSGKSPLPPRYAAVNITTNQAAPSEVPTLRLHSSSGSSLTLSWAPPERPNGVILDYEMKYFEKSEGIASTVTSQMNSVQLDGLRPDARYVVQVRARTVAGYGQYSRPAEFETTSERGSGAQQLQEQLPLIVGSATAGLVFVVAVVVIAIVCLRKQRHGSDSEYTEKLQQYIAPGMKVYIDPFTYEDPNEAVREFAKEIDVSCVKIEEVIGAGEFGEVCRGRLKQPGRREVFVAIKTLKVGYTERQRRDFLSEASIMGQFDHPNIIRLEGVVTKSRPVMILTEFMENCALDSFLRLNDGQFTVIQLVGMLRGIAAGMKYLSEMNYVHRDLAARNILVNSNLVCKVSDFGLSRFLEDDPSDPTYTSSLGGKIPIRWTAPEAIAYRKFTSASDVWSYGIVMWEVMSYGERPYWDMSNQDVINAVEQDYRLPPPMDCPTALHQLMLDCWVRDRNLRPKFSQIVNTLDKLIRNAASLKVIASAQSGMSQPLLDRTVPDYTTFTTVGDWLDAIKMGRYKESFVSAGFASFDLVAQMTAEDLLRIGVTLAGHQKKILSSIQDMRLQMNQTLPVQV
As to the method: as §1

A further experiment concerns the target T7, GSK3b (Homo sapiens, UniProt P49841).
T7 construct: lines 1-140) and Reaction Biology
As to the method:
as §1

The next experiment has as its target T8, MELK (Homo sapiens, UniProt Q14680).
T8 construct: lines 1-140) and Reaction Biology
As for the experimental part: as §1

A further experiment has as its target T9, MPSK1 (Homo sapiens, UniProt O75716).
T9 construct: lines 1-140) and Reaction Biology
As for the experimental part: as §1

The target of a further experiment is T10, MST4 (Homo sapiens, UniProt Q9P289).
T10 construct: lines 1-140) and Reaction Biology
T10 sequence (Q9P289 whole entry): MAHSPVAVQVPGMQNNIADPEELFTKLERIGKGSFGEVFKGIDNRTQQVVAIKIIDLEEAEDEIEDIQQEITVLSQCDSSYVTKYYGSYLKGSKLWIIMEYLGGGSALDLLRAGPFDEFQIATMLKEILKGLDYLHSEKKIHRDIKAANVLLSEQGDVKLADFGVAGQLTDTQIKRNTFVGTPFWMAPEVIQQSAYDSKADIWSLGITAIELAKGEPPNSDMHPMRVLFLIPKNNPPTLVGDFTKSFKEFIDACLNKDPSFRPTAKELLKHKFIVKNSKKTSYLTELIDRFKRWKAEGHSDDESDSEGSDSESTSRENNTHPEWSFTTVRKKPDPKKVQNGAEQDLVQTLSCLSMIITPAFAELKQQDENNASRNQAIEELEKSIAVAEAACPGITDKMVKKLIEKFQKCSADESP
As for the experimental part:
as §1

The target of another experiment is T11, OSR1 (Homo sapiens, UniProt O95747).
T11 construct: lines 1-140) and Reaction Biology
T11 sequence (O95747 whole entry): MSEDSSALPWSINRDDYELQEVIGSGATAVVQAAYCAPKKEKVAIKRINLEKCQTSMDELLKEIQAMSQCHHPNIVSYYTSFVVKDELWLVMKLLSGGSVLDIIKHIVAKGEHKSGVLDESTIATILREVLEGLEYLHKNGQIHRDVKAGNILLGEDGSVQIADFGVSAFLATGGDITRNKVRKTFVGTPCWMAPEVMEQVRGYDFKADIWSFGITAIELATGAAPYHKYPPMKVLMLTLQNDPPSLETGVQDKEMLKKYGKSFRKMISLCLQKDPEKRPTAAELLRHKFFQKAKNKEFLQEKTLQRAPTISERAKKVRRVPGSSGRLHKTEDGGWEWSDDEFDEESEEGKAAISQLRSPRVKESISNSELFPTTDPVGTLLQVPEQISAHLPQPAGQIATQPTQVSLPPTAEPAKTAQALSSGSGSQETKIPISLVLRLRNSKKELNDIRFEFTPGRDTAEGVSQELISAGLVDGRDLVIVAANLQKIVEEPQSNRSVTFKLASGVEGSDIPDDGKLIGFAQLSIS
As for the experimental part: as §1

For a further experiment, the target named is T12, SIK3 (Homo sapiens, UniProt Q9Y2K2).
T12 construct: lines 1-140) and Reaction Biology
T12 sequence (Q9Y2K2 whole entry): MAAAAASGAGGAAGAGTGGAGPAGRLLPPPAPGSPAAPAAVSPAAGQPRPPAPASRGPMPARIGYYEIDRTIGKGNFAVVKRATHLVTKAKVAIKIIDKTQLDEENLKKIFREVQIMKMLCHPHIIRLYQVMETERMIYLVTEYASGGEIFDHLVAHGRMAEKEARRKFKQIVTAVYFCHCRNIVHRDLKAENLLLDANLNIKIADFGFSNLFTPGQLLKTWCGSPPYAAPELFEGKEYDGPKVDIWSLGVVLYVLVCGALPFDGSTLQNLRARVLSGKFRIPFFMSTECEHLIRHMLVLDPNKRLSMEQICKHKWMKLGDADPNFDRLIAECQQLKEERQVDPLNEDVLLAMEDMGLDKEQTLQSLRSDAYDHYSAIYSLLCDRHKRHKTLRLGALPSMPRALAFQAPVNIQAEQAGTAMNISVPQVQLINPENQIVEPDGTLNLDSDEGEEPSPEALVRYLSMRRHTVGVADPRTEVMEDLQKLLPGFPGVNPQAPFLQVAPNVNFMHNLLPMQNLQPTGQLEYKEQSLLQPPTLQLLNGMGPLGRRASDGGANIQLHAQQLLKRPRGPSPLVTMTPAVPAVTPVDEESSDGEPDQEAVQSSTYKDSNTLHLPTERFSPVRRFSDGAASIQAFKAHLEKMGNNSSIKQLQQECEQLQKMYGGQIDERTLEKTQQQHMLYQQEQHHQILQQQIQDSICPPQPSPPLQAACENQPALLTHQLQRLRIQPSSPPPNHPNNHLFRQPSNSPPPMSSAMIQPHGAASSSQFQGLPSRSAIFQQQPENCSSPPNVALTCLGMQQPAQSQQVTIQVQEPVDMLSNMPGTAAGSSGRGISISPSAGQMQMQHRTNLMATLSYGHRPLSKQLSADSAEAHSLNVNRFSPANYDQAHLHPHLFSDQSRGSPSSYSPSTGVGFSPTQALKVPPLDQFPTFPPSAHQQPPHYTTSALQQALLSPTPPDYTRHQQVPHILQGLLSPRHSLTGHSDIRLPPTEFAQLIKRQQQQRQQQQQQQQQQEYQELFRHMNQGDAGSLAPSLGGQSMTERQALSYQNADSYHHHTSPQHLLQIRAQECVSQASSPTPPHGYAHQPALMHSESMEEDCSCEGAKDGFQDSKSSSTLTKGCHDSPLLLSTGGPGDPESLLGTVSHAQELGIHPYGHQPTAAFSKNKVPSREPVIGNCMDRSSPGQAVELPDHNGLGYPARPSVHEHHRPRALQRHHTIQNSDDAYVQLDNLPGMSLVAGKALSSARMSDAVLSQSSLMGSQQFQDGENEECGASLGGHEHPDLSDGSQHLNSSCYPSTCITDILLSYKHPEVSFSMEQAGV
As for the experimental part: as §1

T9 sequence (O75716 whole entry): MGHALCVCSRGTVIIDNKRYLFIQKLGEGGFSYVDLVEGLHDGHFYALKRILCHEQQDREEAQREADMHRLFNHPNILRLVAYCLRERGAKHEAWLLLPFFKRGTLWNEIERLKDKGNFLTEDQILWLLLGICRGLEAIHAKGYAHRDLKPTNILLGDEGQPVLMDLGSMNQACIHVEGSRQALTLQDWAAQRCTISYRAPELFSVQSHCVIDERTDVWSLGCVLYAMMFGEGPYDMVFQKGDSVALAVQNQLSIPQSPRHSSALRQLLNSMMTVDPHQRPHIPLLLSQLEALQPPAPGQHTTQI
T8 sequence (Q14680 whole entry): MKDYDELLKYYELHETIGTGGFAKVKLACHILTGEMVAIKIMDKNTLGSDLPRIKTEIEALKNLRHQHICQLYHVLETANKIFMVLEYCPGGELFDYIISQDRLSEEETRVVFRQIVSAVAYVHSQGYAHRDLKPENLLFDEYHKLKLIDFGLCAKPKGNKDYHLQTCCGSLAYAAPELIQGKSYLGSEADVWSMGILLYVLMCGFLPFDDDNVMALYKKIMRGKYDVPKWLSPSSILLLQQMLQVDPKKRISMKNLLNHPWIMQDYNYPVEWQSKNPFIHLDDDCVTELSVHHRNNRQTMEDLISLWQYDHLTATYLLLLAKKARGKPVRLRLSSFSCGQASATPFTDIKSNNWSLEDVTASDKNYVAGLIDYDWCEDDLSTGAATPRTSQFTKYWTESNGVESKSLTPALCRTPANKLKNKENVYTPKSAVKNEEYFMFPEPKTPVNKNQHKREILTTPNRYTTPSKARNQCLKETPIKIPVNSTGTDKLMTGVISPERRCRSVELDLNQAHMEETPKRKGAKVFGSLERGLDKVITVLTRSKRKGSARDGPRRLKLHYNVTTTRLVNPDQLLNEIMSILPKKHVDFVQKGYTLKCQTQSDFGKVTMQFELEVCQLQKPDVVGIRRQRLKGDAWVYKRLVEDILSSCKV
T7 sequence (P49841 whole entry): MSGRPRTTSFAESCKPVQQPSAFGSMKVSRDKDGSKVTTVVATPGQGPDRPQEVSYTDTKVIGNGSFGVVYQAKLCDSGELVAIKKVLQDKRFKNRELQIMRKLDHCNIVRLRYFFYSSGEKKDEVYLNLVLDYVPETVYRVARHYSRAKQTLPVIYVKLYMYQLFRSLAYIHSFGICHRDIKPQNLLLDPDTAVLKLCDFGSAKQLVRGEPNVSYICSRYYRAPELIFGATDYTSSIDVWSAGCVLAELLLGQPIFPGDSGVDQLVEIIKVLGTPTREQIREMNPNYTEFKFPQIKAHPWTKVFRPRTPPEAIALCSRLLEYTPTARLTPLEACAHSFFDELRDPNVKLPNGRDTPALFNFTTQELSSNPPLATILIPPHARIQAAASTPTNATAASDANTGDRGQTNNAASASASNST

For the molecule `Oc1ncnc2c1c(-c1ccccc1)cn2-c1ccccc1` [F1386-0303, 5,7-diphenyl-7H-pyrrolo[2,3-d]pyrimidin-4-ol], the remaining activity at 1 µM at ASK1 is 93%; on CDK2-Cyclin A, 84%; at CHK2, 100%; on CSK it was 97%; at DAPK1, 104%; at EPH-B3 it was 104%. The remaining activity at 1 µM turned out to be 127% at GSK3b; 90% at MELK; 117% on MPSK1; 109% at MST4; 102% on OSR1; 110% at SIK3.

Take `O=C1Cc2c([nH]c3ccc(Br)cc23)-c2ccccc2N1` [Kenpaullone]: the remaining activity at 1 µM at ASK1 turned out to be 68%; on CDK2-Cyclin A, 93%; on CHK2 it was 25%; on CSK, 68%; on DAPK1 it was 82%; on GSK3b, 6%. Also, the remaining activity at 1 µM at MELK amounted to 38%; at MPSK1, 74%; on MST4, 74%; on OSR1, 52%; on SIK3 it was 12%.

On to `COCCOc1ccc(-c2cn(-c3ccccc3)c3nc[nH]c(=O)c23)cc1` [DMX-5804, 5-[4-(2-methoxy-ethoxy)-phenyl]-7-phenyl-3,7-dihydro-pyrrolo[2,3-d]pyrimidin-4-one], for which the remaining activity at 1 µM on ASK1 was 108%; on CDK2-Cyclin A it was 104%; at CHK2, 69%; at CSK, 103%; on DAPK1, 133%; at EPH-B3, 96%. Besides, the remaining activity at 1 µM is 102% at GSK3b; 83% on MELK; 103% at MPSK1; 102% on MST4; 128% on OSR1; 90% at SIK3.

On to `O=C1Nc2ccc(I)cc2/C1=C/c1cc(Br)c(O)c(Br)c1` [GW5074], for which the remaining activity at 1 µM at ASK1 worked out at 56%; on CDK2-Cyclin A, 111%; on CHK2, 46%; at CSK, 52%; at DAPK1, 29%; on EPH-B3, 94%. For the same molecule, the remaining activity at 1 µM was 42% at GSK3b; 48% at MELK; 38% at MPSK1; 89% on MST4; 24% at OSR1; 65% at SIK3.

`Nc1ncc(C(=O)NC2CN(C(=O)C3CC3)C2)c2ccc(-c3cccc(F)c3)nc12` [GNE-495]: the residual activity (in general, the signal under treatment as a percentage of the control signal) was found to be 84% at ASK1 (1 μM); 55% on CDK2-Cyclin A (1 μM); 102% at CHK2 (1 μM); 94% at CSK (1 μM); 126% on DAPK1 (1 μM); 87% on EPH-B3 (1 μM). The residual activity on GSK3b (1 μM) was determined as 69%; at MELK (1 μM), 82%; at MPSK1 (1 μM), 100%; at MST4 (1 μM), 117%; at OSR1 (1 μM) it was 109%; on SIK3 (1 μM) it was 87%.
